The record followed here is US4483869A, “Thiocarnitines, process for their preparation and pharmaceutical compositions containing same” (Sigma-Tau Industrie Farmaceutiche Riunite S.p.A., priority 1980, dated 1984).

Structures can show the parent of a compound that is named as a salt.

In one data set the test system is rabbit. Description: Cutaneous regeneration from burns in the rabbit. As to conditions: 20 mg Kg^-1 orally once a day for seven days; for Percentage of regenerated tissue, 4th day: control 20; for Percentage of regenerated tissue, 8th day: control 50. It is filed as in vivo. How it is done: The ability of the compounds of formula (I) to speed up the cutaneous regeneration from burns has been tested in the rabbit.
A 4 cm^2 cutaneous area of the average-top zone of the test animal back was burned.
The compounds were orally administered in aqueous solution at the dose of 20 mg Kg^-1 once a day for seven days. The area of cutaneous regeneration i.e. the area of the newly formed tissue, was then measured (Table III).
Effect of compounds of formula (I) on cutaneous
regeneration. Percentage of regenerated tissue at the 4th
and 8th day from treatment.

The next data set concerns acetylcholine. As to the kind of experiment: Formation of acetylcholine.
Data set [1] in a line: Acute toxicity in the mouse, Weil's method. The conditions noted are these: in vivo, ip. An excerpt: The acute toxicity of the compounds of general formula (I) has been studied in the mouse with the Weil method (Weil C. S., Biometr. J. 8, 249, 1952).
The LD50 values of some compounds illustrated in Table I, indicate that the compounds are remarkably well tolerated.
LD50, mg Kg^-1, ep in mouse of some thiocarnitines of general
formula (I). Weil's method (N = 5, K = 4) Cl = hydrochloride

Data set [2] can be described thus: Crossing of the blood-brain barrier.
For the next data set, the system named is CoA. As to the kind of experiment: Transfer of the acetyl group to CoA / acyl group donor. In kind it is biochemical.
Another data set deals with rats. Description: Protection against X-ray exposure in rats (survival after irradiation). It is filed as in vivo, Albino Wister rats. As to conditions: 20-25 mg Kg^-1 1 hour before irradiation; for Percentage of surviving animals, day 10: 10 days from irradiation, control 90; for Percentage of surviving animals, day 20: 20 days from irradiation, control 20; for Percentage of surviving animals, day 30: 30 days from irradiation, control 10. How it is done: The effect of the compounds of formula (I) towards the damages provoked by X-ray exposure was studied.
The experiment animals, Albino Wister rats, treated with the compounds under examination (20-25 mg Kg^-1 1 hour before irradiation) were irradiated and checked over a time period to detect the onset of toxic effects and the time of survival with respect to the control group. […]
Protective effect of some thiocarnitines of general
formula (I) towards the damage provoked by irradiation
in rats. Percentage of surviving animals at
various days from irradiation.

Data set [3] is described as follows: Hygroscopicity and stability to the atmosphere of the isolated product. It is filed as physicochemical. As to conditions: for hygroscopicity: isolated product.
Setting [4] is: "ep" route, Weil's method (N = 5, K = 4).

In general, LD50 refers to the dose expected to kill half of the subjects tested. Read a high LD50 as lower toxicity. As to `CC(=O)SC(CC(=O)O)C[N+](C)(C)C` (centres unmarked) [S--acetyl thiocarnitine Cl, S-acetyl thiocarnitine hydrochloride], in the data set with rabbit, the “Percentage of regenerated tissue, 4th day” value (“Percentage … 4th day” below) is listed as 50 Percentage and the “Percentage of regenerated tissue, 8th day” value (from here on “Percentage … 8th day”) amounted to 90 Percentage. Moreover, the formation of acetylcholine entry in the data set on acetylcholine is given as “promotes the formation of acetylcholine”. Moreover, the LD50 in data set [1] (setting [4]) came out at 294 mg/kg. For the same molecule, in data set [2], the “ability to cross the blood-brain barrier” value is “able to cross the blood-brain barrier”. The “acyl group donor activity” value in the data set with CoA is on record as “potent acyl group donor”. Moreover, the “transfer of the acetyl group to CoA” value in the data set on CoA (in the absence of CoA carnitine acetyl transferase) was “able to transfer the acetyl group to CoA directly even in the absence of the enzyme”. Also, in the data set with rats, the “Percentage of surviving animals, day 10” value is reported as 100 Percentage; the “Percentage of surviving animals, day 20” value is given as 70 Percentage; the “Percentage of surviving animals, day 30” value is 60 Percentage.

On to `CC(O)CC(=O)SC(CC(=O)O)C[N+](C)(C)C` (stereo not drawn) [S--hydroxybutyryl thiocarnitine Cl, S-beta hydroxybutyryl thiocarnitine], for which, in the data set on rabbit, the “Percentage … 4th day” value stood at 30 Percentage and the “Percentage … 8th day” value amounted to 60 Percentage. Also, the hygroscopicity entry in data set [3] was “very hygroscopic”. This molecule also registered an LD50 in data set [1] (setting [4]) of 300 mg/kg. Also, in the data set on rats, the “Percentage of surviving animals, day 10” value is on record as 100 Percentage; the “Percentage of surviving animals, day 20” value was found to be 80 Percentage; the “Percentage of surviving animals, day 30” value stood at 60 Percentage.

On to `CCC(CC)C(=O)SC(CC(=O)O)C[N+](C)(C)C` (centres unmarked) [S--diethylacetyl thiocarnitine Cl, S-diethylacetyl thiocarnitine], for which, in the data set on rabbit, the “Percentage … 4th day” value is reported as 50 Percentage and the “Percentage … 8th day” value turned out to be 60 Percentage. Besides, in data set [3], the hygroscopicity result is reported as “highly hygroscopic”. In data set [1] (setting [4]), this molecule displayed an LD50 of 295 mg/kg. In addition, in the data set with rats, the “Percentage of surviving animals, day 10” value amounted to 80 Percentage; the “Percentage of surviving animals, day 20” value worked out at 60 Percentage; the “Percentage of surviving animals, day 30” value turned out to be 30 Percentage.

For `CCC(=O)SC(CC(=O)O)C[N+](C)(C)C` (centres unmarked) [S--propionyl thiocarnitine Cl, S-propionyl thiocarnitine halogenide], in the data set with rabbit, the “Percentage … 4th day” value turned out to be 30 Percentage and the “Percentage … 8th day” value is listed as 70 Percentage. The molecule also gave an LD50 in data set [1] of 302 mg/kg. For the same molecule, in the data set with rats, the “Percentage of surviving animals, day 10” value came out at 90 Percentage; the “Percentage of surviving animals, day 20” value was 70 Percentage; the “Percentage of surviving animals, day 30” value is 50 Percentage.

`C[N+](C)(C)CC(S)CC(=O)O` (centres unmarked) [Thiocarnitine, thiocarnitine hydrochloride]: in the data set on rabbit, the “Percentage … 4th day” value was determined as 40 Percentage and the “Percentage … 8th day” value was 90 Percentage. The “stability upon exposure to the atmosphere” value in data set [3] (exposure to the atmosphere) is on record as “darkened upon exposure to the atmosphere”. For the same molecule, in data set [3], the hygroscopicity entry is “very hygroscopic”. Moreover, the LD50 in data set [1] (setting [4]) is 150 mg/kg. Also, in the data set with rats, the “Percentage of surviving animals, day 10” value is reported as 95 Percentage; the “Percentage of surviving animals, day 20” value was determined as 60 Percentage; the “Percentage of surviving animals, day 30” value came out at 50 Percentage.

As to `CCCC(=O)SC(CC(=O)O)C[N+](C)(C)C` (centres unmarked) [S--butyryl thiocarnitine Cl, S-butyryl thiocarnitine halogenide], in the data set with rabbit, the “Percentage … 4th day” value came out at 20 Percentage and the “Percentage … 8th day” value came out at 40 Percentage. In data set [1], this molecule returned a 50% lethal dose (LD50) of 350 mg/kg. Besides, in the data set with rats, the “Percentage of surviving animals, day 10” value was 90 Percentage; the “Percentage of surviving animals, day 20” value turned out to be 40 Percentage; the “Percentage of surviving animals, day 30” value turned out to be 40 Percentage.

`CCCC(CCC)C(=O)SC(CC(=O)O)C[N+](C)(C)C` (centres unmarked) [S--dipropylacetyl thiocarnitine Cl, S-dipropylacetil thiocarnitine hydrochloride]: in the data set with rabbit, the “Percentage … 4th day” value was 50 Percentage and the “Percentage … 8th day” value is 100 Percentage. Moreover, the 50% lethal dose (LD50) in data set [1] came out at 350 mg/kg. For the same molecule, in the data set with rats, the “Percentage of surviving animals, day 10” value worked out at 90 Percentage; the “Percentage of surviving animals, day 20” value is 70 Percentage; the “Percentage of surviving animals, day 30” value came to 50 Percentage.
